Data on one compound can be found in ChEMBL document CHEMBL4699487, “Discovery of ONO-8590580: A novel, potent and selective GABA α negative allosteric modulator for the treatment of cognitive disorders” (Bioorg Med Chem Lett, 2020).

Molecules are shown by their SMILES.

Data set [1] in a line: Apparent permeability in MDCK-MDR1 cells. It is filed as ADME, cell-based, Canis lupus familiaris. Particulars: dog.
Data set [2] in a line: AUC infinity in rat at 3 mg/kg, po. It is filed as ADME, organism-based. Particulars: in vivo. Also on record: time infinity, route oral, dose 3 mg/kg.
Data set [3] in a line: Cmax in rat at […], iv. It is filed as ADME, organism-based. Details: route intravenous, dose 0.44 mg/kg. Particulars: in vivo.
Data set [4] is described as follows: Cmax in rat at 3 mg/kg, po. In kind it is ADME, organism-based. Details: route oral, dose 3 mg/kg. Particulars: in vivo.
A short description of data set [5]: Volume of distribution at steady state in rat at […], iv. In kind it is ADME, organism-based. Particulars: in vivo, dose 0.44 mg/kg, read-out: Vdss.
Data set [6] can be described thus: Oral bioavailability in rat at 3 mg/kg. In kind it is ADME, organism-based. Particulars: in vivo.
Data set [7] in a line: AUC infinity in rat at […], iv. It is filed as ADME, organism-based. Also on record: route intravenous, time infinity, dose 0.44 mg/kg. As to conditions: in vivo.

Turning to `Cc1c(F)c(Nc2ccc(-c3cn(C)cn3)cn2)cc2c1ncn2CC1CC1`, the Papp in data set [1] amounted to 47 ×10⁻⁶ cm/s. Further, the AUC(0-inf) in data set [2] was 1780 ng·h/mL; in data set [7], 400 ng·h/mL. The Cmax in data set [3] turned out to be 278 ng/mL; in data set [4] it was 520 ng/mL. Further, the Vd in data set [5] turned out to be 1.7 L/kg. In data set [6], this compound registered a bioavailability of 65%.
